# In PubChem BioAssay (NCI):
# “And” between values parts separate entries of the source, which are not always exact repeats. Equal entries are not always repeated.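 Protocol summary: plate cells (96-well), add compound at 5 concentrations, incubate 48 h, interpolate endpoints linearly. Abbreviation: GI50, concentration required for 50% inhibition of growth. TGI denotes the concentration required for complete inhibition of growth.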
# Assays:
# Experiment in all cases: NCI tumour cell line growth inhibition, 48 h
# [1] = system: KM20L2 colon
# [2] = system: DMS 114 small cell lung
# [3] = system: LXFL 529 NSCLC
# [4] = system: RXF-631 renal
# [5] = system: SNB-78 CNS
# [6] = system: M19-MEL melanoma
# [7] = system: XF 498 CNS
# [8] = system: DMS 273 small cell lung
# [9] = system: SN12K1 renal
# [10] = system: MDA-N
# [11] = system: P388/ADR leukemia
Compound,TGI [1],TGI [2],TGI [3],TGI [5],TGI [6],TGI [7],TGI [8],TGI [10],further results
N#Cc1c(C(N)=O)ncn1Cc1ccccc1,> 100 µM,> 100 µM,> 100 µM,> 100 µM,> 100 µM,> 100 µM,> 100 µM,,TGI [4]: > 100 µM
COc1ccc(C2c3cc4c(cc3OC(O)(CO)C2C(=O)O)OCO4)c(OC)c1OC (stereo unspecified) (tested in a mixture with another compound),> 100 µM,> 100 µM,,> 100 µM,> 100 µM,> 100 µM,> 100 µM,,
C/C=C/CP(=O)(c1ccccc1)c1ccccc1,> 100 µM,> 100 µM,> 100 µM,> 100 µM,> 100 µM,> 100 µM,> 100 µM,,
Nc1nc(F)nc2c1ncn2C1OC(COP(=O)(O)O)C(O)C1O (stereo unspecified),> 1250 µM,626 µM,,636 µM,877 µM,152 µM,821 µM,723 µM,TGI [9]: 277 µM; TGI [11]: 160 µM
CC(=O)NC(Cc1c[nH]c2ccccc12)C(=O)O (stereo unspecified),,,,,,,,> 100 µM,
COc1ccc(/C(Cl)=C(\C=O)c2cc(OC)c(OC)c(OC)c2)cc1OC,> 100 µM,85.9 µM,> 100 µM,88.1 µM,> 100 µM,,> 100 µM,> 100 µM,TGI [4]: 65.4 µM
O=C1C=CC(=O)N1c1ccc2c(c1)Cc1cc(NC(=O)C(F)(F)F)ccc1-2,,,,,,,,32.5 µM,
CC(=O)Oc1cc2c(=O)oc3c(OC(C)=O)c(OC(C)=O)c(OC(C)=O)c4c(=O)oc(c1OC(C)=O)c2c34,> 100 µM,58 µM,> 100 µM,> 100 µM,40.6 µM,76.5 µM,> 100 µM,,TGI [4]: 78.5 µM
Cn1cc(C(=O)/C(Cl)=C(\Cl)C(=O)O)c2ccccc21,> 100 µM,> 100 µM,,> 100 µM,> 100 µM,> 100 µM,> 100 µM,,TGI [4]: > 100 µM
O=C1CC(c2ccccc2)NCN1 (stereo unspecified),> 100 µM,> 100 µM,> 100 µM,> 100 µM,> 100 µM,,> 100 µM,,
O=C1C(Br)=C(c2ccccc2)C(c2ccccc2)=C1c1ccccc1,13.1 µM,5.03 µM,2.84 µM,4.26 µM,5.58 µM,3.65 µM,3.68 µM,9.61 µM,TGI [4]: 13.1 µM
NC(=S)N/N=C1\C(=O)N(c2cccc([N+](=O)[O-])c2)C(=O)C1C(=O)Nc1cccc([N+](=O)[O-])c1 (stereo unspecified),> 100 µM,> 100 µM,> 100 µM,> 100 µM,> 100 µM,,> 100 µM,,
O=C(CC1(O)C(=O)Nc2ccccc21)c1ccc(O)cc1O (stereo unspecified),> 100 µM,> 100 µM,> 100 µM,> 100 µM,> 100 µM,> 100 µM,> 100 µM,,
c1cncc(-c2cc(-c3cc(-c4cccnc4)n[nH]3)[nH]n2)c1,,,,,,,,> 100 µM,
CCOC(=O)c1ccc(C(O)CC(=O)OC(C)(C)C)[nH]1 (stereo unspecified),,,,,,,,60.3 µM,GI50 [10]: 17.8 µM
COC1=CC(C)C2C[C@H]3O[C@H](O)C[C@H]4C(C)C(=O)C(O)C([C@@]2(C)C1=O)[C@@]34C (stereo partly specified),,> 100 µM,> 100 µM,> 100 µM,> 100 µM,,> 100 µM,,
COc1ccc(C(=O)O)c2c(=O)c3ccccc3[nH]c12,> 100 µM,,> 100 µM,> 100 µM,> 100 µM,> 100 µM,> 100 µM,,

Compound,TGI [1],TGI [2],TGI [3],TGI [5],TGI [6],TGI [7],TGI [8],TGI [10],further results
CCOC(=O)CCc1c(C)c2ccc(O)cc2oc1=O,,,,,,,,> 100 µM,
CC1(C)CC2=NOS3=C2C(=NO3)C1c1ccccn1 (stereo unspecified),,,,,,,,92.9 µM,
CO/C=C/c1cc2c(cc1C(OC)OC)OCO2,> 100 µM,> 100 µM,,> 100 µM,> 100 µM,84.8 µM,> 100 µM,,TGI [4]: > 100 µM
Nc1ccn(C2OC(COP(=O)(O)O)C(O)C2O)c(=O)n1 (stereo unspecified),,,,,,,,> 100 µM,
CC1CC(C)C(=O)C(C(=O)CC2CC(=O)NC2=O)C1 (stereo unspecified),> 100 µM,> 100 µM,> 100 µM,> 100 µM,> 100 µM,> 100 µM,> 100 µM,,TGI [4]: > 100 µM
CC(=O)[CH-]C(C)=O.CC(=O)[CH-]C(C)=O.CC(=O)[CH-]C(C)=O.[Cl-].[Hf+4],> 100 µM,> 100 µM,,,,,> 100 µM,,GI50 [1]: > 100 µM; GI50 [2]: > 100 µM; GI50 [8]: > 100 µM
OCC1OC(O)C(N=Cc2ccc3c(c2)OCO3)C(O)C1O (stereo unspecified),,,,,,,,> 100 µM,
CC1=Cc2cc3[n-]c(cc4nc(cc5[n-]c(cc1n2)c(C)c5CCC(=O)O)C(CCC(=O)O)=C4C)cc3C.[Cu+2],> 100 µM,> 44.9 µM,> 100 µM,> 1 µM and 8.92 µM,> 100 µM,> 1 µM and 26.5 µM,> 55.9 µM,> 100 µM,GI50 [1]: > 100 µM; GI50 [2]: > 1 µM and 11.5 µM; GI50 [3]: > 1 µM and 12.4 µM; GI50 [10]: 62.4 µM; GI50 [5]: > 1 µM and 2.07 µM; GI50 [6]: > 100 µM; GI50 [7]: > 1 µM and 10.2 µM; GI50 [8]: > 39.8 µM
CC1(C)OC(=O)C=C(O)O1.CC1(C)OC(=O)C=C(O)O1.CCO.Oc1ccc2c(c1)CCC2.[Ti],> 100 µM,> 100 µM,> 100 µM,> 100 µM,> 100 µM,,> 100 µM,,GI50 [1]: > 100 µM; GI50 [2]: > 100 µM; GI50 [3]: > 100 µM; GI50 [5]: > 100 µM; GI50 [6]: > 100 µM; GI50 [8]: > 100 µM
Cc1ccc(NC(=O)/C(=N/NC(=O)CC#N)C2C(=O)N(c3ccccc3)N=C2N)cc1C (stereo unspecified),> 100 µM,> 100 µM,> 100 µM,> 100 µM,> 100 µM,> 100 µM,> 100 µM,,
CCC(=O)Nc1ccc2c(c1)CN1C(=O)c3ccccc3C1=N2,,,,,,,,> 100 µM,GI50 [10]: > 100 µM
O=C(Nc1ccc(N=Nc2ccccc2)cc1)Sc1ccccc1C(=O)O,> 100 µM,,> 100 µM,> 100 µM,,,> 100 µM,,
CCC[CH2][Sn]([CH2]CCC)([O]C(=O)c1cccc(F)c1F)[O][Sn]([CH2]CCC)([CH2]CCC)[O]C(=O)c1cccc(F)c1F,2.1 µM,0.204 µM,0.157 µM,1.51 µM,0.689 µM,0.314 µM,1.51 µM,1.16 µM,GI50 [1]: 0.727 µM; GI50 [2]: 0.0627 µM; GI50 [3]: 0.0222 µM; GI50 [10]: 0.223 µM; GI50 [4]: 0.0409 µM; TGI [4]: 0.398 µM; GI50 [5]: 0.139 µM; GI50 [6]: 0.141 µM; GI50 [7]: 0.173 µM; GI50 [8]: 0.301 µM
C[C@]12CC[C@@H]3c4ccc(OCC(=O)O)cc4CC[C@H]3[C@@H]1CCC2=O,,,,,,,,> 100 µM,
O=C1NC(=O)[C@H]2C3C=CC([C@@H]12)[C@@H]1C(=O)NC(=O)[C@H]31,,,,,,,,> 100 µM,
NC1=NN(c2ccccc2)C(=O)C1C(=O)C(=O)Nc1cccc(C(F)(F)F)c1 (stereo unspecified),> 100 µM,> 100 µM,> 100 µM,> 100 µM,> 100 µM,> 100 µM,> 100 µM,,TGI [4]: > 100 µM
